From patent US7732398B2, “Medicinal uses of mu-opioid receptor agonists” (Cornell Research Foundation, Inc., priority 2000, dated 2010)

Key:
[1] = tested on: 5-HT uptake in spinal cord synaptosomes; experiment: Inhibition of [3H]5-HT uptake in spinal cord synaptosomes; type: biochemical, guinea pig; settings: data not shown
Protocol: Adult female Hartley strain guinea pigs (440-550 g) were decapitated and the spinal cords taken out. A crude synaptosomal (P2) fraction was prepared as described previously (Lonart and Johnson 1995; Li 2000). Briefly, the tissue was minced and homogenized in 10 ml of ice-cold 0.32 M sucrose solution (pH7.4) with a Thomas B075 homogenizor, clearance 0.13-0.18 mm. The homogenate was centrifuged for 10 min at 1,200×g in a Megafuge centrifuge at 4° C. The resulting supernatant was then centrifuged at 20,000×g for 20 min in JA-17 rotor of a Beckman J2-21 centrifuge at 4° C. and the supernatant discarded. The pellet (P2) was gently resuspended in aerated (100% O2) ice-cold buffer containing (in mM):HEPES 20, NaCl 140, KCl 5, NaHCO3 5, MgCl2 1, Na2HPO4 1.2, CaCl2 1.2 and glucose 10, pH 7.4, and centrifuge at 3,000×g for 12 min in a Megafuge at 4° C. Pour out the supernatant. […] Protein concentration was determined by the method of Bradford (1976) at 595 nm using bovine serum albumin as a standard in a Spectra Max plus machine (Molecular Device Co. Sunnyvale, Calif.)
Add buffer 0.6 ml in tubes, synaptosome solution 0.2 ml (about 100 μg), then varying concentration of drug 0.1 ml (each concentration performed in triplicate), put in water bath for pre-incubation for 10 min at 37° C. […] Filter-bound radioactivity was counted by liquid scintillation counter (Beckman LS6001). […]

[2] = known value (Szeto et al., 1998); cited from earlier work
rats (F344 strain) = experiment: Myocardial stunning during myocardial ischemia and reperfusion in rats; type: in vivo, rat
Protocol: In the [Dmt^1]DALDA group, [Dmt^1]DALDA was administered as a 10 nmol bolus, followed by 10 nmol/h continuous infusion. […] The control group received the same volume of saline as a bolus and continuous infusion.
The left anterior descending artery was occluded by applying tension to the sling through a polyethylene 10 tubing and clamping. Successful occlusion was confirmed by typical electrocardiographic changes and wall motion abnormality on echocardiogram. After 10 min of myocardial ischemia, the sling was released to reperfuse the left anterior descending artery. Time to recovery of left ventricular function was defined as the duration from the reperfusion to recovery of fractional shortening above 90% of baseline. Duration of reperfusion arrhythmia was defined as the duration of time to the last three consecutive premature ventricular contractions (salvo) after reperfusion. All procedures were performed in a blinded manner, with the groups assigned letters and their identities unknown to the operators. Likewise, the two independent investigators analyzing the data were blind to the treatment assignments.
All procedures and care of animals were in accordance with guidelines approved by the Institution for the Care and Use of Animals at Weill Medical College of Cornell University. Following anesthesia with 0.2 mg of ketamine and 1 mg xylazine given intraperitoneally, tracheostomy with blunt dissection of the neck and intubation with polyethylene tubing 240 was performed. Mechanical ventilation was started with room air at 90 respirations per min. The internal jugular vein was surgically exposed and a polyethylene tubing was inserted for drug administration. Left thoracotomy was performed through fifth intercostal space to expose the heart. After removal of the pericardium, a 6.0 Nylon sling was placed around the proximal left anterior descending artery just below the level of the left atrial appendage, to be used for occlusion of the coronary artery. Continuous echocardiogram was obtained by inserting a 10 French intracardiac probe into the esophagus (Acuson-Sequoia C256) and a two-dimensional echocardiogram was recorded continuously, with 10 MHz echo signals throughout the procedure. Electrocardiographic monitoring from a standard lead II (AC AMP 700) was digitally recorded throughout the procedure.
M-mode recordings were obtained for the analysis of wall motion and left ventricular systolic function. Left ventricular end diastolic and end systolic dimensions were measured at the level of papillary muscle. Fractional shortening as a measure of the global left ventricular function was calculated as the difference between left ventricular end diastolic and end systolic dimensions divided by end diastolic dimension×100. Systolic wall thickening of the anterior wall in percent, as a measure of the ischemic regional wall motion, was calculated as the difference between left ventricular end diastolic and end systolic wall thickness divided by end diastolic wall thickness×100.
Echocardiographic and electrocardiographic data are presented as mean value±SD. ANOVA was used to compare among the groups. A p-value<0.05 was considered significant.

awake sheep = experiment: Blood pressure in sheep after intravenous administration; type: in vivo
Excerpt: Even a brief period of increased blood pressure may be a risk factor in patients with hypertension, compromised myocardial function (such as after a myocardial infarction) or patients who are at risk for strokes. The response is short-lasting because the receptor desensitizes rapidly. We can take advantage of this rapid desensitization and eliminate the blood pressure response by administering the drug as a slow intravenous infusion rather than as a rapid bolus injection.
[…] […] Thus the increase in blood pressure can be avoided by using a slow intravenous infusion of [Dmt^1]DALDA.

[3] = Five min. after reperfusion, listed as morphine

Which “effect on 5-HT uptake” value [1] does the source give for `NCCCC[C@H](NC(=O)[C@H](Cc1ccccc1)NC(=O)[C@@H](CCCN=C(N)N)NC(=O)[C@@H](N)Cc1ccc(O)cc1)C(N)=O` [DALDA, H-Tyr-D-Arg-Phe-Lys-NH2] here?
The value was “Neither DALDA nor [Dmt^1]DALDA had any effect”.

And the elimination half-life [2]?
The elimination half-life was roughly 1.5 h.

Which results are given for `CN1CC[C@]23c4c5ccc(O)c4O[C@H]2[C@@H](O)C=C[C@H]3[C@H]1C5` [Morphine, morphine, reference compound]?
Ejection fraction (rats (F344 strain); After ligation): 31.3 ± 4.2%; Fractional shortening (rats (F344 strain); After ligation): 21.0 ± 3.9%; Systolic wall thickening (rats (F344 strain); After ligation): 7.8 ± 6.5%; Ejection fraction (rats (F344 strain); Baseline): 64.6 ± 6.0%; Fractional shortening (rats (F344 strain); Baseline): 46.5 ± 3.6%; Systolic wall thickening (rats (F344 strain); Baseline): 47.7 ± 4.5%; Ejection fraction (rats (F344 strain); Five min. after reperfusion): 39.5 ± 11.1%; Fractional shortening (rats (F344 strain); Five min. after reperfusion): 39.1 ± 6.4%; Systolic wall thickening (rats (F344 strain); Five min. after reperfusion): 33.7 ± 7.5%; Fractional shortening (rats (F344 strain); [3]): 39.1±6.4%; Systolic wall thickening (rats (F344 strain); [3]): 33.7±7.5%; Fractional shortening (rats (F344 strain); Ten min. after reperfusion): 45.3 ± 6.2%; Systolic wall thickening (rats (F344 strain); Ten min. after reperfusion): 42.2 ± 5.8%; Time to recovery of left ventricular function (rats (F344 strain); from reperfusion to fractional shortening above 90% of baseline, [Dmt1]DALDA 10 nmol + 10 nmol/h, morphine 100 nmol + 100 nmol/h iv): 6.0 ± 2.5 min; duration of reperfusion arrhythmia (rats (F344 strain); time to last salvo after reperfusion): 5.8 ± 3.9 min

For `Cc1cc(O)cc(C)c1C[C@H](N)C(=O)N[C@H](CCCNC(=N)N)C(=O)N[C@@H](Cc1ccccc1)C(=O)N[C@@H](CCCCN)C(N)=O` [[Dmt^1]DALDA, 2′,6′-dimethyl-Tyr-D-Arg-Phe-Lys-NH2], which “effect on 5-HT uptake” value [1] is on record?
The value was “Neither DALDA nor [Dmt^1]DALDA had any effect”.

And the blood pressure (awake sheep; constant rate intravenous infusion 0.06-0.6 mg/kg/h for as long as 4 h)?
Its blood pressure is “no significant change in blood pressure”.

And the blood pressure (awake sheep; intravenous bolus 0.003-0.009 mg/kg, awake sheep)?
The blood pressure was “transient increase in blood pressure”.

What about the “potency relative to DALDA in increasing blood pressure” value (awake sheep; sheep, unpublished data) of the same compound?
The value was 100 fold.

What about the Ejection fraction (rats (F344 strain); After ligation) of the same compound?
Its Ejection fraction is 31.4 ± 5.6%.

And the Fractional shortening (rats (F344 strain); After ligation)?
The Fractional shortening was 27.1 ± 4.0%.

And the Systolic wall thickening (rats (F344 strain); After ligation)?
The Systolic wall thickening was 7.6 ± 4.7%.

And the Ejection fraction (rats (F344 strain); Baseline)?
Its Ejection fraction is 64 ± 9.2%.

What about the Fractional shortening (rats (F344 strain); Baseline) of the same compound?
Its Fractional shortening is 47.8 ± 4.2%.

What about the Systolic wall thickening (rats (F344 strain); Baseline) of the same compound?
The Systolic wall thickening was 47.0 ± 6.1%.

And the Ejection fraction (rats (F344 strain); Five min. after reperfusion)?
Its Ejection fraction is 48.9 ± 10.1%.

And the Fractional shortening (rats (F344 strain); Five min. after reperfusion)?
The Fractional shortening was 45.7±2.4%.

What about the Systolic wall thickening (rats (F344 strain); Five min. after reperfusion) of the same compound?
Its Systolic wall thickening is 48.3±7.6%.

And the Fractional shortening (rats (F344 strain); Ten min. after reperfusion)?
Its Fractional shortening is 44.0±3.8%.

What about the Systolic wall thickening (rats (F344 strain); Ten min. after reperfusion) of the same compound?
The Systolic wall thickening was 50.5±8.4%.

And the “effect on contractility during preischemic or postischemic periods” value (rats (F344 strain); review of continuous echocardiogram)?
Its value is “no effects of [Dmt^1]DALDA on the contractility”.
